Assay results as given in ChEMBL document CHEMBL3045182, “Synthesis and biological evaluation of some stilbene-based analogues” (Med Chem Res, 2011).
Activity calls are given as the source filed them. No cut-off for these calls is given here.

Assays:
[1] = system: Radical scavenging activity; assay: Antioxidant activity assessed as DPPH radical scavenging activity at 20 ug/ml; format: functional
[2] = system: Radical scavenging activity; assay: Antioxidant activity assessed as DPPH radical scavenging activity at 30 ug/ml; format: functional
[3] = system: Radical scavenging activity; assay: Antioxidant activity assessed as DPPH radical scavenging activity at 50 ug/ml; format: functional
[4] = system: Radical scavenging activity; assay: Antioxidant activity assessed as DPPH radical scavenging activity at 40 ug/ml; format: functional
Aspergillus niger = assay: Antifungal activity against Aspergillus niger by poison plate assay method; format: functional, organism-based
Penicillium chrysogenum = assay: Antifungal activity against Penicillium chrysogenum by poison plate assay method; format: functional, organism-based
Staphylococcus aureus = assay: Antibacterial activity against Staphylococcus aureus by agar cup-plate assay method; format: functional
Escherichia coli = assay: Antibacterial activity against Escherichia coli by agar cup-plate assay method; format: functional
[5] = system: Radical scavenging activity; assay: Antioxidant activity assessed as DPPH radical scavenging activity at 500 ug/ml; format: functional
[6] = system: Radical scavenging activity; assay: Antioxidant activity assessed as DPPH radical scavenging activity at 1500 ug/ml; format: functional
[7] = system: Radical scavenging activity; assay: Antioxidant activity assessed as DPPH radical scavenging activity at 1000 ug/ml; format: functional
[8] = system: Radical scavenging activity; assay: Antioxidant activity assessed as DPPH radical scavenging activity at 2500 ug/ml; format: functional

Structure (SMILES) | Activity [1] [%] | Activity [2] [%] | Activity [3] [%] | Activity [4] [%] | inhibition zone (IZ) (Aspergillus niger) | inhibition zone (IZ) (Penicillium chrysogenum) | inhibition zone (IZ) (Staphylococcus aureus) | inhibition zone (IZ) (Escherichia coli) | Activity [5] [%] | Activity [6] [%] | Activity [7] [%] | Activity [8] [%]
O=C1O[C@H]([C@@H](O)CO)C(O)=C1O | 80.9 | 86.7 | 94.7 | 92 |  |  |  |  |  |  |  | 
Fc1ccc(/C=C/c2cccc(F)c2)cc1 |  |  |  |  | inactive | Active | 28 mm | inactive | 40.5 | 47.1 | 42.1 | 49.5
Fc1ccc(/C=C/c2ccc(Cl)cc2)cc1 |  |  |  |  | inactive | Active | 20 mm | inactive | 37.4 | 41.6 | 40.8 | 45.5
CC1(C)S[C@@H]2[C@H](NC(=O)Cc3ccccc3)C(=O)N2[C@H]1C(=O)O [PENICILLIN G] |  |  |  |  |  |  | 40 mm | 17 mm |  |  |  | 
Fc1ccc(/C=C/c2ccc(Cl)cc2Cl)cc1 |  |  |  |  | inactive | Active | 18 mm | inactive | 35.2 | 37.8 | 37.1 | 39.3
Cc1ccc(/C=C/c2ccc(F)cc2)cc1 |  |  |  |  | inactive | inactive | inactive | inactive | 35.4 | 39.5 | 36.4 | 45.4
Fc1ccc(/C=C/c2ccc(F)cc2F)cc1 |  |  |  |  | inactive | inactive | 30 mm | inactive | 45.3 | 50.3 | 48 | 52.5
Fc1ccc(/C=C/c2cccc(Cl)c2)cc1 |  |  |  |  | inactive | Active | 22 mm | inactive | 33 | 37.8 | 35.6 | 39.8
Clc1ccc(/C=C/c2ccc(Cl)cc2Cl)c(Cl)c1 |  |  |  |  | inactive | inactive | 24 mm | inactive | 44.6 | 50.2 | 48.7 | 56.4
Cc1ccc(/C=C/c2ccc(Cl)cc2Cl)cc1 |  |  |  |  | inactive | inactive | 12 mm | inactive | 34.8 | 37.1 | 36.4 | 39.1
Clc1ccc(/C=C/c2ccc(Cl)c(Cl)c2)c(Cl)c1 |  |  |  |  | inactive | Active | 28 mm | inactive | 46.5 | 54.2 | 49.1 | 58
COC1=CC(=O)C[C@@H](C)[C@]12Oc1c(Cl)c(OC)cc(OC)c1C2=O |  |  |  |  | Active | Active |  |  |  |  |  | 
Fc1ccc(/C=C/c2ccc(F)c(F)c2)cc1 |  |  |  |  | inactive | inactive | 36 mm | inactive | 43.9 | 46.5 | 44.6 | 48.1
Clc1cccc(/C=C/c2ccc(Cl)cc2Cl)c1 |  |  |  |  | inactive | Active | 26 mm | inactive | 44.7 | 56.1 | 49.7 | 61.4
Clc1ccc(/C=C/c2ccc(Cl)cc2Cl)cc1 |  |  |  |  | inactive | inactive | 24 mm | inactive | 41.3 | 45.7 | 43.5 | 47.2
Fc1ccc(/C=C/c2ccc(F)cc2)cc1 |  |  |  |  | inactive | Active | 24 mm | inactive | 35.2 | 44.9 | 37.4 | 53.8
Cc1ccc(/C=C/c2ccc(C)cc2)cc1 [(E)-1,2-DI-P-TOLYLETHENE] |  |  |  |  | inactive | inactive | 20 mm | inactive | 34.9 | 37.1 | 35.7 | 38
